{"source": "patent US20240301409A1", "about": "“Chemically Modified Small Activating RNA” (RACTIGEN THERAPEUTICS, priority 2021, published 2024)", "key": {"[1]": {"system": "Rag1-40 target sequence in the 3′ UTR of firefly luciferase, COS-1 cells", "assay": "Analysis of off-target effects (pOff-Target dual luciferase reporter in COS-1 cells)", "conditions": "lysed 48 hours after transfection, luciferase activity", "experimental": "(§1) A 26 bp fragment comprising the target site of Rag1-40 was cloned in the antisense orientation into the 3′ UTR region of the firefly luciferase gene in a pmirGLO dual luciferase vector. Vector plasmids were co-transfected with the indicated saRNAs into COS-1 cells. Cells were lysed 48 hours after transfection, and the resulting lysates were assessed for luciferase activity. Data represent mean±SD of at least two independent experiments. Dashed line represents comparisons to blank control (top dashed line) and Rag1-40 (bottom dashed line). Values close to the top dashed line indicate no off-target effect.\n(§2) A 26 bp fragment comprising the Rag1-40 target sequence was cloned in the antisense orientation into a multiple cloning site (MCS) of the 3′ untranslated region of firefly luciferase of the pmirGLO dual luciferase vector (Promega, Fitchburg, WI), to obtain pOff-Target plasmid. Following E. coli transformation and overnight incubation, plasmids for each construct were prepared by standard method. Each plasmid was transfected into COS-1 monkey kidney epithelial cells using Lipofectamine 3000 (Invitrogen, Carlsbad, CA). Subsequently, saRNA was transfected using RNAiMAX. After 24 hours of incubation, COS-1 cells were lysed with 1× lysis buffer, and luciferase activity was measured using dual luciferase reporter gene assay system (Promega, WI, USA) following manufacturer's instructions.\n(§3) To assess the off-target effects of unmodified and modified saRNAs, a sequence complementary to the sense oligonucleotide strand of Rag1-40 was cloned into the 3′UTR region of the luciferase gene in a pmirGLO dual luciferase vector. The vector plasmid was co-transfected with the saRNA into COS-1 cells. Cells were lysed 48 hours after transfection and the resulting lysates were assessed for luciferase activity."}, "[2]": {"system": "Rag1-40 target sequence in the 3′ UTR of firefly luciferase, COS-1 cells", "experimental": "as §1, §2, §3"}, "RNase A": {"biological_target": "T1, RNase A (Bos taurus, UniProt P61823)", "T1 sequence (P61823 27-150)": "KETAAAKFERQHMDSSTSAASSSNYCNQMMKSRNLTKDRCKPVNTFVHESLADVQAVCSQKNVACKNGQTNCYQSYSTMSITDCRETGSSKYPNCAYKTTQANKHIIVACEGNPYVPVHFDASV"}}, "note": "Where two headings read alike, the source gives them in different places. Oligonucleotides are written 5' to 3', each unit as a sugar letter and its base; * is a phosphorothioate linkage, no mark a phosphodiester; rarer units and linkages stand in square brackets, end groups in braces. Plain capitals give the bases only. r = 2'-OH (RNA); f = 2'-fluoro", "data": [{"substance": "Rag1-40-21: saRNA duplex: sense mCmCAACUCAUUCUCCAAG*U*C (SEQ ID NO 15); antisense UACUfUGGAGAAfUGAGUfUGG*fC*A (SEQ ID NO 10) (sense CCAACUCAUUCUCCAAGUC; antisense UACUUGGAGAAUGAGUUGGCA; 2'-OMe, 2'-F, phosphorothioates; modified_base (1)..(2) (1,2)=2′-O-methyl(2′-OMe); modified_base (17)..(19) (17,18,19)=phosphorothioate (PS) backbone modification; modified_base (5)..(20) (5,12,17,20)=2′-fluoro; modified_base (19)..(21) (19,20,21)=phosphorothioate (PS) backbone modification)", "values": [{"measurement": "off-target effect compared to unmodified Rag1-40, in words", "setting": "[1]", "result": "mitigated or similar off-target effects"}]}, {"substance": "Rag1-40-22: saRNA duplex: sense mCmCAACUCAUUCUCCAAG*U*C (SEQ ID NO 15); antisense fU*A*fCfUfUGGAGAAfUGAGfUfUGG*fC*A (SEQ ID NO 11) (sense CCAACUCAUUCUCCAAGUC; antisense UACUUGGAGAAUGAGUUGGCA; 2'-OMe, 2'-F, phosphorothioate modifications; modified_base (1)..(2) (1,2)=2′-O-methyl(2′-OMe); modified_base (17)..(19) (17,18,19)=phosphorothioate (PS) backbone modification; modified_base (1)..(21) (1,2,3,19,20,21)=phosphorothioate (PS) backbone modification; modified_base (1)..(20) (1,3,4,5,12,16,17,20)=2′-fluoro)", "values": [{"measurement": "off-target effect compared to unmodified Rag1-40, in words", "setting": "[2]", "result": "completely inhibited"}, {"measurement": "degradation of duplex at 96 hours", "setting": "RNase A", "result": "little or no signs of degradation"}]}, {"substance": "Rag1-40-23: saRNA duplex: sense mCmCAACUCAUUCUCCAAG*U*C (SEQ ID NO 15); antisense U*A*fCfUfUGGAGAAfUGAGfUfUGG*fC*A (SEQ ID NO 12) (sense CCAACUCAUUCUCCAAGUC; antisense UACUUGGAGAAUGAGUUGGCA; 2'-OMe, 2'-F, phosphorothioate modifications; modified_base (1)..(2) (1,2)=2′-O-methyl(2′-OMe); modified_base (17)..(19) (17,18,19)=phosphorothioate (PS) backbone modification; modified_base (2)..(21) (2,3,19,20,21)=phosphorothioate (PS) backbone modification; modified_base (3)..(20) (3,4,5,12,16,17,20)=2′-fluoro)", "values": [{"measurement": "off-target effect compared to unmodified Rag1-40, in words", "setting": "[2]", "result": "mitigated or similar off-target effects"}, {"measurement": "degradation of duplex at 96 hours", "setting": "RNase A", "result": "little or no signs of degradation"}]}, {"substance": "Rag1-40-26: saRNA duplex: sense fCfCAACUCAUUCUCCAAG*U*C (SEQ ID NO 16); antisense fUACUfUGGAGAAfUGAGUfUGGfCA (SEQ ID NO 7) (sense fCfCrArArCrUrCrArUrUrCrUrCrCrArArG*rU*rC; antisense fUrArCrUfUrGrGrArGrArAfUrGrArGrUfUrGrGfCrA)", "values": [{"measurement": "off-target effect compared to unmodified Rag1-40, in words", "setting": "[2]", "result": "increased off-target effects"}, {"measurement": "time to complete degradation", "setting": "RNase A", "result": "≤ 24", "unit": "h"}]}, {"substance": "Rag1-40-28: saRNA duplex: sense fCfCAACUCAUUCUCCAAG*U*C (SEQ ID NO 16); antisense fUACUfUGGAGAAfUGAGUfUGG*fC*A (SEQ ID NO 9) (sense fCfCrArArCrUrCrArUrUrCrUrCrCrArArG*rU*rC; antisense fUrArCrUfUrGrGrArGrArAfUrGrArGrUfUrGrG*fC*rA)", "values": [{"measurement": "off-target effect compared to unmodified Rag1-40, in words", "setting": "[2]", "result": "mitigated or similar off-target effects"}, {"measurement": "time to complete degradation", "setting": "RNase A", "result": "≤ 24", "unit": "h"}]}, {"substance": "Rag1-40-30: saRNA duplex: sense fCfCAACUCAUUCUCCAAG*U*C (SEQ ID NO 16); antisense fU*A*fCfUfUGGAGAAfUGAGfUfUGG*fC*A (SEQ ID NO 11) (sense fCfCrArArCrUrCrArUrUrCrUrCrCrArArG*rU*rC; antisense fU*rA*fCfUfUrGrGrArGrArAfUrGrArGfUfUrGrG*fC*rA)", "values": [{"measurement": "off-target effect compared to unmodified Rag1-40, in words", "setting": "[2]", "result": "mitigated or similar off-target effects"}, {"measurement": "degradation of duplex at 96 hours", "setting": "RNase A", "result": "little or no signs of degradation"}]}]}
